From patent US9334279B2, “Hepatitis C virus inhibitors” (BRISTOL-MYERS SQUIBB COMPANY, priority 2012, dated 2016)
Where two headings read alike, the source gives them in different places.

Key:
HCV GT1b(Con1) replicon = test: HCV replicon luciferase reporter assay, genotype 1b; format: cell-based, HCV genotype 1b; details: Hepatitis C virus, 72 h, HUH-7 cells, Renilla luciferase, 3 days incubation
Procedure, shortened: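 HUH-7 cells stably carrying a Con1 GT1b replicon with Renilla luciferase and Ser1179Ile adaptive mutation; 3.0×10^3 cells/well, DMEM 4% FCS, 0.5% DMSO, twenty-point 3-fold titration, 3 days 37 °C. Luminescence 2 h after 7.5 μM EnduRen; EC50 by four-parameter logistic fit. CC50 from multiplexed Cell Titer-Blue fluorescence (8 h).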

HCV GT1a(H77) replicon = test: HCV replicon luciferase reporter assay, genotype 1a; format: cell-based, HCV genotype 1a; details: Hepatitis C virus, 72 h, HUH-7 cells, Renilla luciferase, 3 days incubation
Procedure, shortened: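 Huh-7 cells stably carried a GT1a(H77) Renilla luciferase replicon with NS3 P1496L and NS5A S2204I adaptive mutations. Luminescence was read after 2 h with 7.5 μM EnduRen, and EC50 came from a four-parameter logistic fit; CC50 came from multiplexed Cell Titer-Blue (8 h).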

Row | SMILES | EC50 (HCV GT1b(Con1) replicon; read-out: LE_1b (EC50)) [nM] | EC50 (HCV GT1b(Con1) replicon; read-out: LE_1b (EC50, range)) [nM] | EC50 (HCV GT1a(H77) replicon; read-out: LE_1a (EC50)) [nM] | EC50 (HCV GT1a(H77) replicon; read-out: LE_1a (EC50, range)) [nM]
1 | C[C@@H]1CC/C=C\[C@@H]2C[C@@]2(C(=O)NS(=O)(=O)C2(C)CC2)NC(=O)[C@@H]2C[C@@H](Oc3cc(-c4nccs4)nc(-c4nccs4)c3)CN2C(=O)[C@@H](NC(=O)OC(C)(C)C(F)(F)F)[C@H](C)C1 [Compound 1023, 1,1,1-trifluoro-2-methylpropan-2-yl ((2R,6S,7R,9R,13aS,14aR,16aS,Z)-2-((2,6-di(thiazol-2-yl)pyridin-4-yl)oxy)-7,9-dimethyl-14a-(((1-methylcyclopropyl)sulfonyl)carbamoyl)-5,16-dioxo-1,2,3,5,6,7,8,9,10,11,13a,14,14a,15,16,16a-hexadecahydrocyclopropa[e]pyrrolo[1,2-a][1,4]diazacyclopentadecin-6-yl)carbamate] | 0.4 | 0.1 to 0.5 | 0.46 | 0.1 to 0.5
2 | C[C@H]1CC/C=C\[C@@H]2C[C@@]2(C(=O)NS(=O)(=O)C2(C)CC2)NC(=O)[C@@H]2C[C@@H](Oc3cc(-c4nccs4)nc(-c4nccs4)c3)CN2C(=O)[C@@H](NC(=O)OC(C)(C)C(F)(F)F)[C@H](C)C1 [Compound 1024, 1,1,1-trifluoro-2-methylpropan-2-yl ((2R,6S,7R,9S,13aS,14aR,16aS,Z)-2-((2,6-di(thiazol-2-yl)pyridin-4-yl)oxy)-7,9-dimethyl-14a-(((1-methylcyclopropyl)sulfonyl)carbamoyl)-5,16-dioxo-1,2,3,5,6,7,8,9,10,11,13a,14,14a,15,16,16a-hexadecahydrocyclopropa[e]pyrrolo[1,2-a][1,4]diazacyclopentadecin-6-yl)carbamate] |  | 0.51 to 1 |  | 1.01 to 5
3 | C[C@@H]1CC/C=C\[C@@H]2C[C@@]2(C(=O)NS(=O)(=O)C2(C)CC2)NC(=O)[C@@H]2C[C@@H](Oc3ccnc(-c4nccs4)c3)CN2C(=O)[C@@H](NC(=O)OC(C)(C)C(F)(F)F)[C@H](C)C1 [Compound 1025, 1,1,1-trifluoro-2-methylpropan-2-yl ((2R,6S,7R,9R,13aS,14aR,16aS,Z)-7,9-dimethyl-14a-(((1-methylcyclopropyl)sulfonyl)carbamoyl)-5,16-dioxo-2-((2-(thiazol-2-yl)pyridin-4-yl)oxy)-1,2,3,5,6,7,8,9,10,11,13a,14,14a,15,16,16a-hexadecahydrocyclopropa[e]pyrrolo[1,2-a][1,4]diazacyclopentadecin-6-yl)carbamate] |  | 0.51 to 1 |  | 1.01 to 5
4 | C[C@@H]1CC/C=C\[C@@H]2C[C@@]2(C(=O)NS(=O)(=O)C2CC2)NC(=O)[C@@H]2C[C@@H](Oc3cc(Cl)ccn3)CN2C(=O)[C@@H](NC(=O)OC(C)(C)C(F)(F)F)[C@H](C)C1 [Compound 1026, 1,1,1-trifluoro-2-methylpropan-2-yl ((2R,6S,7R,9R,13aS,14aR,16aS,Z)-2-((4-chloropyridin-2-yl)oxy)-14a-((cyclopropylsulfonyl)carbamoyl)-7,9-dimethyl-5,16-dioxo-1,2,3,5,6,7,8,9,10,11,13a,14,14a,15,16,16a-hexadecahydrocyclopropa[e]pyrrolo[1,2-a][1,4]diazacyclopentadecin-6-yl)carbamate] |  | 5.01 to 35 |  | 5.01 to 35
5 | CC(C)Oc1ccc(-c2cc(Cl)cc(O[C@@H]3C[C@H]4C(=O)N[C@]5(C(=O)NS(=O)(=O)C6(C)CC6)C[C@H]5/C=C\CC[C@@H](C)C[C@@H](C)[C@H](NC(=O)OC(C)(C)C(F)(F)F)C(=O)N4C3)n2)cc1 [Compound 1027, 1,1,1-trifluoro-2-methylpropan-2-yl ((2R,6S,7R,9R,13aS,14aR,16aS,Z)-2-((4-chloro-6-(4-isopropoxyphenyl)pyridin-2-yl)oxy)-7,9-dimethyl-14a-(((1-methylcyclopropyl)sulfonyl)carbamoyl)-5,16-dioxo-1,2,3,5,6,7,8,9,10,11,13a,14,14a,15,16,16a-hexadecahydrocyclopropa[e]pyrrolo[1,2-a][1,4]diazacyclopentadecin-6-yl)carbamate] |  | 1.01 to 5 |  | 1.01 to 5
